# Where two headings read alike, the source gives them in different places.
# What was measured:
# [1] = target: PDE4B (aa 152-484, Uniprot ID Q07343) (Homo sapiens (Human), UniProt Q07343); test: PDE4 SPA assay (scintillation proximity assay); assay type: biochemical; conditions: read-out: PDE4B2 IC50
# Procedure: Phosphodiesterase (PDE) activity is determined by measuring the effect of a test agent on the activity of the PDE4B enzyme in a scintillation proximity assay (SPA). At the time of assay, approximately 30 μL of PDE4B (aa 152-484, Uniprot ID Q07343) in 50 mM Tris pH 7.5, 1.3 mM MgC2, 0.004% Brij 35 is added to a 384 well white clear bottom polystyrene plate (Corning) containing 1 μL of varying concentrations of test compound. After −10 minutes at room temperature (RT; 21° C.), the assay is initiated by the addition of 20 μL of a mixture of ^3H-labeled (adenosine 3′, 5′-cyclic phosphate, ammonium salt, [2,8-^3H]; Perkin Elmer) and unlabeled cAMP. The final assay conditions are approximately 81.6 pM PDE4B in 50 mM Tris pH 7.5, 1.3 mM MgCl2, 0.004% Brij 35, 1 μM ^3H-labeled/unlabeled cAMP (1425 dpm/pmol) and the indicated final concentration of test compound (approximately 10 μM to […] by 4-fold dilution). The final concentration of DMSO in the assay is approximately 2.0%. After 30 minutes at RT, the assay is terminated by the addition of approximately 20 μL of an aqueous solution of PDE YSI SPA beads (8 mg/mL in water; Perkin Elmer). The beads are allowed to settle for at least 2 hours and the plate is then counted on a MicroBeta2 (Perkin Elmer). The concentrations and resulting effect values for the tested compound are plotted and the concentration of compound required for 50% effect (IC50) is determined with a four-parameter logistic dose response equation (E-WorkBook, ID Business Solutions Ltd.) and shown in Table 17.
# IL-4 = test: Cytokine assay: IL-4 release from PHA-L stimulated human PBMCs; assay type: cell-based; conditions: read-out: IL4 IC50
# Procedure: (§1) Cytokine inhibitory activity is determined by measuring the effect of test agent on the release of the cytokines IL-4, IL-13 and IFNγ from human peripheral blood mononuclear cells (PBMCs) stimulated with the T-cell mitogen phytohemagglutinin-L (PHA-L). At the time of assay, human PBMCs (Astarte Biologics) are removed from cryopreservation, thawed quickly at 37° C., diluted in assay medium (RPMI-Gibco 1640 medium, 10% heat inactivated fetal bovine serum (HIFBS), 2 mM glutamine and 10 mM HEPES pH 7.4) and then centrifuged at 250×g for 5 minutes. The resulting cell pellet is re-suspended in assay medium to a concentration of approximately 5×10^6 cells/mL and 50 μL of this cell suspension (approximately 250,000 cells) is added to each well of a 384-well cell culture microtiter plate (Perkin Elmer). Varying concentrations of test compound are then diluted in assay medium and added to the assay plate wells in a volume of 25 μL. After −10 minutes at room temperature (21° C.) the cells are stimulated by the addition of 25 μL of PHA-L (14 μg/mL; Millipore) and the assay plate is placed in an incubator at 37° C. in a humidified environment in 5% carbon dioxide. The final assay conditions are approximately 250,000 human PBMCs per well in assay medium containing 3.5 μg/mL PHA-L and the indicated final concentration of test compound (approximately 10 μM to […] by 4-fold dilution). The final concentration of DMSO in the assay is approximately 0.25%. After 48 hours, the assay plate is removed from the incubator and centrifuged at 250×g for 5 minutes. A portion of the resulting cell supernatant is then used to determine the amount of IL-4, IL-13 and IFNγ in each well. Cytokine measurements are made using human IL-4, IL-13 or IFNγ HTRF assay kits (CisBio) following the manufacturer's assay protocol. The concentrations and resulting effect values for tested compounds are plotted and the concentration of compound required for 50% effect (IC50) is determined with a four-parameter logistic dose response equation (E-WorkBook, ID Business Solutions Ltd.) and shown in Table 17.
# IL-13 = test: Cytokine assay: IL-13 release from PHA-L stimulated human PBMCs; assay type: cell-based; conditions: read-out: IL13 IC50
# Procedure: as §1
# IFNγ = test: Cytokine assay: IFNγ release from PHA-L stimulated human PBMCs; assay type: cell-based
# Procedure: as §1
# Sequence of PDE4B (aa 152-484, Uniprot ID Q07343) (Q07343 324-656): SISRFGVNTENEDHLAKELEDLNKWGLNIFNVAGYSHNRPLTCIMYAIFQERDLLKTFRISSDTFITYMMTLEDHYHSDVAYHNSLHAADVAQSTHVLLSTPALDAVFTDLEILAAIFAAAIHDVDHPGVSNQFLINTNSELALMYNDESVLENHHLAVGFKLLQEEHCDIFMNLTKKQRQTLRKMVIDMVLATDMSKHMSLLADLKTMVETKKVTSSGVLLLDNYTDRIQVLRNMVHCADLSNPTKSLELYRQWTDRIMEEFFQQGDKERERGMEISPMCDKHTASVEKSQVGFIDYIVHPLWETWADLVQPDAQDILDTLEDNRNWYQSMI
SMILES,IC50 [1] [nM],"IC50 (IL-4; Homo sapiens, PBMC) [nM]","IC50 (IL-13; Homo sapiens, PBMC) [nM]","IC50 (IFNγ; Homo sapiens, PBMC) [nM]",IC50 (IL-4) [nM],IC50 (IL-13) [nM],IC50 (IFNγ) [nM]
"CCOc1cc(-c2cc([C@H]3COB(O)C3)cnc2C)ccc1OC (single isomer, unassigned) [Example 20]",26.9,86.8,8790,103,,,
"CCCOc1cc(-c2cncc(C3COB(O)C3)c2)ccc1OCC (single isomer, unassigned) [Example 106, 4-(5-(4-ethoxy-3-propoxyphenyl)pyridin-3-yl)-1,2-oxaborolan-2-ol]",1.83,,,,16.1,2080,3.42
"CCOc1cc(-c2cccc(C3COB(O)C3)n2)ccc1SC (stereo not drawn) [Example 203, 4-(6-(3-ethoxy-4-(methylthio)phenyl)pyridin-2-yl)-1,2-oxaborolan-2-ol]",15,176,2180,114,,,
"CCOc1cc(-c2cccc(C3COB(O)C3)n2)ccc1SC (single isomer, unassigned; enantiomer 1) [Example 204, 4-(6-(3-ethoxy-4-(methylthio)phenyl)pyridin-2-yl)-1,2-oxaborolan-2-ol, enantiomer 1]",6.07,22.7,1710,21.8,,,
"COc1cc(-c2ccc(OC)c(OC3CCCC3)c2)nc(C2COB(O)C2)n1 (stereo not drawn) [Example 175, 4-(4-(3-(cyclopentyloxy)-4-methoxyphenyl)-6-methoxypyrimidin-2-yl)-1,2-oxaborolan-2-ol]",5.03,14.3,2310,4.35,,,
"CCCOc1cc(-c2cc(C3COB(O)C3)cnc2C)cnc1OC (stereo not drawn) [Example 218, 4-(6′-methoxy-2-methyl-5′-propoxy-[3,3′-bipyridin]-5-yl)-1,2-oxaborolan-2-ol]",1.45,3.24,2840,2.3,,,
"COc1cnc(-c2cccc(C3COB(O)C3)c2)cc1OC (stereo not drawn) [Example 174, 4-(3-(4,5-dimethoxypyridin-2-yl)phenyl)-1,2-oxaborolan-2-ol]",8.57,279,1140,14.4,,,
"COc1ccc(-c2cncc(C3COB(O)C3)c2)c(F)c1OC (stereo not drawn) [Example 109, 4-(5-(2-fluoro-3,4-dimethoxyphenyl)pyridin-3-yl)-1,2-oxaborolan-2-ol]",4.18,,,,22.7,1270,6.24
"CCOc1c(OC)ccc(-c2cccc(C3COB(O)C3)n2)c1C#N (stereo not drawn) [Example 151, 2-ethoxy-6-(6-(2-hydroxy-1,2-oxaborolan-4-yl)pyridin-2-yl)-3-methoxybenzonitrile]",5.98,39.1,813,3.48,,,
"COc1ccc(-c2cc(C3=CB(O)OC3)ccn2)cc1OC [Example 227, 4-(2-(3,4-dimethoxphenyl)pyridin-4-yl)-1,2-oxaborol-2(5H)-ol]",7.94,285,2540,9.16,,,
"CCOc1cc(-c2cc([C@@H]3COB(O)C3)cnc2C)ccc1OC (single isomer, unassigned) [Example 19]",2.96,2.56,1480,1.68,,,
"CCCOc1cc(-c2cc(C3CB(O)OC3C)cnn2)ccc1OC (stereo not drawn) [Example 30, 4-(6-(4-methoxy-3-propoxyphenyl)pyridazin-4-yl)-5-methyl-1,2-oxaborolan-2-ol]",15.5,70.7,10000,11.6,,,
"CCOc1c(OC)ccc(-c2cncc(C3COB(O)C3)c2)c1C(F)F (single isomer, unassigned; (-)) [Example 10, (−) 4-(5-(2-(difluoromethyl)-3-ethoxy-4-methoxyphenyl)pyridin-3-yl)-1,2-oxaborolan-2-ol]",6.92,,,,2.39,438,1.62
"CCCOc1cc(-c2cccc(C3COB(O)C3)n2)ccc1OC (single isomer, unassigned) [Example 128, 4-(6-(4-methoxy-3-propoxyphenyl)pyridin-2-yl)-1,2-oxaborolan-2-ol]",5.74,53.1,667,2.25,,,
"COc1ccc(-c2cncc(C3COB(O)C3)c2)c(C#N)c1OC (stereo not drawn) [Example 153, 6-(5-(2-hydroxy-1,2-oxaborolan-4-yl)pyridin-3-yl)-2,3-dimethoxybenzonitrile]",3.24,50.7,860,2.57,,,

# Stronger by IC50 [1], values ahead:
IC50 [1] [nM],"IC50 (IL-4; Homo sapiens, PBMC) [nM]","IC50 (IL-13; Homo sapiens, PBMC) [nM]","IC50 (IFNγ; Homo sapiens, PBMC) [nM]",IC50 (IL-4) [nM],IC50 (IL-13) [nM],IC50 (IFNγ) [nM],SMILES
1.21,,,,26.4,449,3.5,"CCCOc1cc(-c2cccc(C3COB(O)C3)c2)ccc1OC (single isomer, unassigned) [Example 89, 4-(4′-methoxy-3′-propoxy-[1,1′-biphenyl]-3-yl)-1,2-oxaborolan-2-ol]"
1.13,,,,219,2800,2.67,"CCOc1ccc(-c2cncc(C3COB(O)C3)c2)cc1OCC (single isomer, unassigned) [Example 98, 4-(5-(3,4-diethoxyphenyl)pyridin-3-yl)-1,2-oxaborolan-2-ol]"
1.08,,,,2.32,162,0.99,"CCOc1cc(-c2cncc(C3COB(O)C3)c2)cc(F)c1OC (single isomer, unassigned) [Example 12, 4-(5-(3-ethoxy-5-fluoro-4-methoxyphenyl)pyridin-3-yl)-1,2-oxaborolan-2-ol]"
0.88,1.17,1260,0.64,,,,"CCCOc1c(OC)ccc(-c2cncc(C3COB(O)C3)c2)c1OC (single isomer, unassigned; enantiomer 1) [Example 168, (−) 4-(5-(2,4-dimethoxy-3-propoxphenyl)pyridin-3-yl)-1,2-oxaborolan-2-ol, enantiomer 1]"
0.69,57.4,533,1.5,,,,"CCOc1nc(-c2cccc(C3COB(O)C3)c2)ccc1OC (stereo not drawn) [Example 121, 4-(3-(6-ethoxy-5-methoxypyridin-2-yl)phenyl)-1,2-oxaborolan-2-ol]"
0.67,210,1350,2.73,,,,"CCOc1cc(-c2cncc([C@H]3COB(O)C3)c2)ccc1OC [Example 2, (S)-4-(5-(3-ethoxy-4-methoxyphenyl)pyridin-3-yl)-1,2-oxaborolan-2-ol]"
0.53,,,2.12,0.73,499,,"CCCOc1nc(-c2cncc(C3COB(O)C3)c2)ccc1OC (single isomer, unassigned) [Example 61, 4-(5-methoxy-6-propoxy-[2,3′-bipyridin]-5′-yl)-1,2-oxaborolan-2-ol]"
0.52,1.06,1770,1.09,,,,"CCOc1cc(-c2c(C)ncc(C3COB(O)C3)c2C)ccc1OC (single isomer, unassigned; enantiomer 1) [Example 205, (+) 4-(5-(3-ethoxy-4-methoxyphenyl)-4,6-dimethylpyridin-3-yl)-1,2-oxaborolan-2-ol, enantiomer 1]"
0.28,0.65,138,0.47,,,,"CCCOc1cc(-c2cncc(C3COB(O)C3)c2)ccc1OC(F)F (single isomer, unassigned) [Example 17, 4-(5-(4-(difluoromethoxy)-3-propoxyphenyl)pyridin-3-yl)-1,2-oxaborolan-2-ol]"

# Reference: patent US11559538B2, “Substituted 1,2-oxaborolan-2-ols as PDE4 inhibitors” (Pfizer Inc., priority 2018, dated 2023)
